Values of other authors, collected in paper PMC4258163 (Bioorganic & medicinal chemistry letters, 2014).

Key:
[1] = tested on: animal model of anxiety; conditions: versus selective FAAH or TRPV1 inhibitors
[2] = systemic administration, mice
[3] = tested on: osteoarthritis pain

| SMILES | Effectiveness in an animal model of anxiety [1] | Hyperthermia [2] | excess of anandamide in the blood of patients ([3]; patients treated with the inhibitor) | Efficacy in treating osteoarthritis pain ([3]; phase II clinical trial, compared with naproxen) |
| --- | --- | --- | --- | --- |
| CCCCC/C=C\C/C=C\C/C=C\C/C=C\CCCC(=O)NCCc1c[nH]c2ccc(O)cc12 [AA-5-HT, N-arachidonoyl serotonin] | more effective | did not cause hyperthermia | – | – |
| O=C(Nc1cccnn1)N1CCC(=Cc2cccc(Oc3ccc(C(F)(F)F)cn3)c2)CC1 [PF-04457845] | – | – | greater than 10 fold | lack of efficacy |
